In the NIST ThermoML archive (doi:10.1021/je100776x):
Numbers after ± are expanded uncertainties.

Tests used:
[1] = Liquid; for mass density: 298.15 K, 101.33 kPa, Vibrating tube method; for Normal boiling temperature: Ebulliometric method (Recirculating still)
[2] = refractive index (Na D-line) (dimensionless); conditions: 298.15 K; 101.33 kPa; Liquid; Standard Abbe refractometry

CC(=O)CC(C)C [4-methylpentan-2-one]
mass density [1]: 796.03 ± 0.14 kg/m3 | vapor or sublimation pressure ([1]; 343.76 K): 22.45 ± 0.2 kPa | vapor or sublimation pressure ([1]; 346.51 K): 24.97 ± 0.2 kPa | vapor or sublimation pressure ([1]; 349.09 K): 27.43 ± 0.21 kPa | vapor or sublimation pressure ([1]; 351.46 K): 29.98 ± 0.21 kPa | vapor or sublimation pressure ([1]; 353.65 K): 32.46 ± 0.21 kPa | vapor or sublimation pressure ([1]; 355.76 K): 35.07 ± 0.21 kPa | vapor or sublimation pressure ([1]; 357.68 K): 37.44 ± 0.21 kPa | vapor or sublimation pressure ([1]; 359.54 K): 39.99 ± 0.21 kPa | vapor or sublimation pressure ([1]; 361.33 K): 42.54 ± 0.21 kPa | vapor or sublimation pressure ([1]; 362.97 K): 44.96 ± 0.21 kPa | vapor or sublimation pressure ([1]; 364.61 K): 47.52 ± 0.21 kPa | vapor or sublimation pressure ([1]; 366.15 K): 50.02 ± 0.21 kPa | vapor or sublimation pressure ([1]; 367.55 K): 52.44 ± 0.21 kPa | vapor or sublimation pressure ([1]; 369.05 K): 55.08 ± 0.22 kPa | vapor or sublimation pressure ([1]; 370.35 K): 57.48 ± 0.22 kPa | vapor or sublimation pressure ([1]; 371.66 K): 59.96 ± 0.22 kPa | vapor or sublimation pressure ([1]; 372.96 K): 62.51 ± 0.22 kPa | vapor or sublimation pressure ([1]; 374.22 K): 65.08 ± 0.22 kPa | vapor or sublimation pressure ([1]; 375.35 K): 67.44 ± 0.22 kPa | vapor or sublimation pressure ([1]; 376.56 K): 70.07 ± 0.22 kPa | vapor or sublimation pressure ([1]; 377.63 K): 72.41 ± 0.22 kPa | vapor or sublimation pressure ([1]; 378.73 K): 74.98 ± 0.23 kPa | vapor or sublimation pressure ([1]; 379.78 K): 77.41 ± 0.23 kPa | vapor or sublimation pressure ([1]; 380.83 K): 79.93 ± 0.23 kPa | vapor or sublimation pressure ([1]; 381.84 K): 82.44 ± 0.23 kPa | vapor or sublimation pressure ([1]; 382.84 K): 84.96 ± 0.23 kPa | vapor or sublimation pressure ([1]; 383.8 K): 87.44 ± 0.23 kPa | vapor or sublimation pressure ([1]; 384.71 K): 89.85 ± 0.23 kPa | vapor or sublimation pressure ([1]; 385.67 K): 92.47 ± 0.23 kPa | vapor or sublimation pressure ([1]; 386.6 K): 95.07 ± 0.24 kPa | vapor or sublimation pressure ([1]; 387.45 K): 97.46 ± 0.24 kPa | vapor or sublimation pressure ([1]; 387.82 K): 98.52 ± 0.24 kPa | vapor or sublimation pressure ([1]; 388.33 K): 99.98 ± 0.24 kPa | vapor or sublimation pressure ([1]; 388.78 K): 101.33 ± 0.24 kPa | refractive index [2]: 1.3942 ± 0.0005

C1CCCCC1 [cyclohexane]
mass density [1]: 773.82 ± 0.13 kg/m3 | Normal boiling temperature [1]: 80.58 ± 0.2 °C | refractive index [2]: 1.4238 ± 0.0005

C1=CCCCC1 [cyclohexene]
mass density [1]: 805.69 ± 0.14 kg/m3 | Normal boiling temperature [1]: 82.82 ± 0.21 °C | refractive index [2]: 1.4444 ± 0.0005
